Values after ≈ are worked out from the molar mass of the structure shown. Where two headings read alike, the source gives them in different places.
Assays:
C. neoformans (H99) = assay: Anti-ureolytic activity, colorimetric microdilution in urea broth; format: cell-based; conditions: Cryptococcus neoformans, 72 h; 560 nm, after three days; read-out: IC50 (µg/ml) of C. neoformans (anti-ureolytic effect)
Method: (§1) The colorimetric microdilution technique using urea broth media (Merck, supplemented with glucose; pH = 6 for C. neoformans) was used to examine the urolytic activity of C. neoformans (H99), and clinical isolate of P.vulgaris treated with tested substances. Compounds in the concentration range of 1–512 μg/mL were exposed to ureolytic microorganisms, and the color of the medium was evaluated visually and spectroscopically at 560 nm after three days for C. neoformans and 24 h for P. vulgaris. The positive control, which included ureolytic bacteria but no drugs, changed color from yellow to dark pink or magenta. This shifts, allowing the determination of the inhibitory activity of compounds against urease activity of organisms even without a microtiter plate reader[57],[58].

[1] = system: clinical isolate of P.vulgaris; assay: as above; format: cell-based; conditions: Proteus vulgaris; 560 nm, after 24 h; read-out: IC50 (µg/ml) of P. vulgaris (anti-ureolytic effect)
Method: as §1

[2] = system: clinical isolate of Proteus vulgaris; assay: Antimicrobial activity, microbroth dilution (CLSI); format: cell-based; conditions: tested 1 to 512 μg/ml
Method: (§2) The antimicrobial activity of compounds against the microorganisms including C. neoformans (H99), and clinical isolate of P.vulgaris was assessed using the microbroth dilution method, as recommended by the Clinical and Laboratory Standards Institute (CLSI) (M07-A9 for bacteria; M27-A3 for yeasts). The compounds were diluted, and stock solutions of 20 mg/ml in DMSO were prepared. Mueller–Hinton Broth (HiMedia) and RPMI-1640 (Sigma) were prepared as recommended for antimicrobial susceptibility testing of bacterial and fungal strains, respectively. Two-fold dilutions were made in the range of 1–512 μg/ml for tested compounds. The microbroth dilution test was accomplished using a 96-well microtiter plate, containing growth control (yeast culture in broth media) and sterility control (broth media without fungal culture). The antimicrobial susceptibility test was accomplished by adding a cell suspension adjusted to the 0.5 McFarland standard (1–2 × 10^8 CFU/mL for bacterial strains; 1−5 × 10^6 cells/ml for yeast) to different concentrations of tested compounds. […] All experiments were performed in duplicates.

[3] = system: Cryptococcus neoformans (H99); assay: Antimicrobial activity, microbroth dilution (CLSI); format: cell-based; conditions: tested 1 to 512 μg/ml
Method: as §2

urease [4] = biological target: T1, urease (Canavalia ensiformis, UniProt P07374); assay: biochemical; format: biochemical, jack bean; conditions: for improvement in potency compared to thiourea: ratio of urease IC50 versus thiourea (positive control)
Method: In vitro anti-urease activity of synthesized compounds, 8a-n were performed based on the […] method against urease compared with thiourea as the reference inhibitor.
Urease inhibition effects of the synthesized compounds were determined according to the previously reported procedure[47]–[49]. 100 μL of the synthesized compounds at different concentrations was added to 850 μL of urea as substrate and 15 μL urease (0.135 units dissolved in PBS, pH 7.4). After 30 min, to 100 μL of the incubated solution, 500 μL solution I (5.0 g phenol and 25.0 mg sodium nitroprusside in 500 mL water) was added followed by the addition of 500 μL of solution II (2.5 g sodium hydroxide, 4.2 mL sodium hypochlorite, and 5% chlorine in 500 mL water) which was further incubated at 37 °C for 30 min. The absorbance was determined by measuring indophenols at 625 nm. Thiourea was used as the standard inhibitor for urease. The IC50 values for all synthesized compounds were calculated using GraphPad Prism software (GraphPad Software, Inc., San Diego, CA).

H. pylori = system: H. pylori; set-up: method as in PMID 10394014; conditions: cited from earlier work
urease [5] = conditions: cited from earlier work
urease [6] = biological target: T1, urease; assay: Kinetic study of urease inhibition (Lineweaver–Burk); format: biochemical, jack bean
Method: The mechanism of urease inhibition was investigated by enzyme kinetics, following the similar procedure of the urease inhibition assay. Lineweaver–Burk graphics were used to estimate the type of inhibition.
The kinetic study for the inhibition of urease by compound 8h was carried out using four different concentrations of inhibitor. For the kinetic study of urease, compound 8h was used at the concentrations of 0, 1, 2, and 4 μM. The Lineweaver–Burk reciprocal plot was constructed by plotting 1/V against 1/[S] at variable concentrations of the substrate urea (3.12–100 mM). The inhibition constant Ki was calculated by the plot of slopes versus the corresponding concentrations of the compound 8h.

T1 sequence (P07374 whole entry, looked up): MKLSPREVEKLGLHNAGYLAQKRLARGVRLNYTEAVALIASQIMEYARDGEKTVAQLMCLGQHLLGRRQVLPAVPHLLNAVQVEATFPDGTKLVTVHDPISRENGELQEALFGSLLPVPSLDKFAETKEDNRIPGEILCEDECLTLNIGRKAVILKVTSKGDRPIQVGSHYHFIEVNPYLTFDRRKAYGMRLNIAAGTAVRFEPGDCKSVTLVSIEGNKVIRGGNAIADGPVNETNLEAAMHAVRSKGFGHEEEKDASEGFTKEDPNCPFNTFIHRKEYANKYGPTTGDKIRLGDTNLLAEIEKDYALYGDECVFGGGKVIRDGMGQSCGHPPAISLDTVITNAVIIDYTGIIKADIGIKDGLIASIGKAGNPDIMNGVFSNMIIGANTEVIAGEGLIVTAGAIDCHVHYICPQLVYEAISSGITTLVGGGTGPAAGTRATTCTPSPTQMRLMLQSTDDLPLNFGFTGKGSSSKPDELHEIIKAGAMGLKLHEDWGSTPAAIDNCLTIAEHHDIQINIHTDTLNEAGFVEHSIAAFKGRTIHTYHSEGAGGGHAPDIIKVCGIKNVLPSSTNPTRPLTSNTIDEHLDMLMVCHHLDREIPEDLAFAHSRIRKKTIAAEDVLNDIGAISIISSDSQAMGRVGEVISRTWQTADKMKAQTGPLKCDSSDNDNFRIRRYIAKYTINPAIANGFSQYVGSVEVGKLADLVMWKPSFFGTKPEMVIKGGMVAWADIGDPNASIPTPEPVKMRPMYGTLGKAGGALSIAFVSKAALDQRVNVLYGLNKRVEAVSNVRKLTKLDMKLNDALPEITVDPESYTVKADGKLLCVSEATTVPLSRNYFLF

SMILES: O=C(CSc1nc2ccccc2c(=O)n1-c1ccc(Br)cc1)Nc1ncc([N+](=O)[O-])s1 [Compound 8c, 2-((3-(4-bromophenyl)-4-oxo-3,4-dihydroquinazolin-2-yl)thio)-N-(5-nitrothiazol-2-yl)acetamide]
- IC50 (C. neoformans (H99)): 174 ± 4.9 µg/mL (≈ 335 µM)
- IC50 [1]: 383 ± 5.1 µg/mL (≈ 739 µM)
- MIC [2]: > 512 µg/mL
- MIC [3]: > 512 µg/mL
- IC50 (urease [4]): 2.22 ± 0.09 µM

SMILES: O=C(Nc1ncc([N+](=O)[O-])s1)c1ccccc1O [Tizoxanide]
- MIC50 against H. pylori (H. pylori): 4 µg/mL (≈ 15.1 µM)
- MIC90 against H. pylori (H. pylori): 8 µg/mL (≈ 30.2 µM)

SMILES: CCCCn1c(SCC(=O)Nc2ncc([N+](=O)[O-])s2)nc2ccccc2c1=O [Compound 8k, 2-((3-butyl-4-oxo-3,4-dihydroquinazolin-2-yl)thio)-N-(5-nitrothiazol-2-yl)acetamide]
- IC50 (urease [4]): 3.02 ± 0.12 µM

SMILES: Cc1ccc(Cn2c(SCC(=O)Nc3ncc([N+](=O)[O-])s3)nc3ccccc3c2=O)cc1 [Compound 8f, 2-((3-(4-methylbenzyl)-4-oxo-3,4-dihydroquinazolin-2-yl)thio)-N-(5-nitrothiazol-2-yl)acetamide]
- IC50 (urease [4]): 3.5 ± 0.28 µM

SMILES: Cc1cnc(NC(=O)CSc2nnc(-c3cccc([N+](=O)[O-])c3)o2)s1 [F]
- IC50 (urease [5]; thiazolbenzamide, Fig. 1F): 2.17 ± 0.41 µM

SMILES: CCNc1nnc(Cn2c(Cc3ccc(F)cc3)nc3ccccc3c2=O)s1 [C]
- IC50 (urease) (urease [5]; quinazolin-4(3H)-ones, Fig. 1C): 1.88 ± 0.17 µg/mL (≈ 4.75 µM)

SMILES: O=C(CSc1nc2ccccc2c(=O)n1-c1ccc(Cl)cc1)Nc1ncc([N+](=O)[O-])s1 [Compound 8b, 2-((3-(4-chlorophenyl)-4-oxo-3,4-dihydroquinazolin-2-yl)thio)-N-(5-nitrothiazol-2-yl)acetamide]
- IC50 (urease [4]): 2.34 ± 0.19 µM

SMILES: NC(N)=S [Thiourea, reference compound]
- IC50 (urease) (urease [5]; quinazolin-4(3H)-ones, Fig. 1C): 15.06 µg/mL (≈ 198 µM)
- IC50 (urease [4]; mean ± standard error of three independent experiments, read-out: IC50 (urease inhibitory activity)): 22.5 ± 0.44 µM

SMILES: O=C(CSc1nc2ccccc2c(=O)n1Cc1cccnc1)Nc1ncc([N+](=O)[O-])s1 [Compound 8g, N-(5-nitrothiazol-2-yl)-2-((4-oxo-3-(pyridin-3-ylmethyl)-3,4-dihydroquinazolin-2-yl)thio)acetamide]
- IC50 [1]: > 512 µg/mL
- MIC [2]: > 512 µg/mL
- MIC [3]: > 512 µg/mL
- IC50 (urease [4]): 2.5 ± 0.37 µM

SMILES: C=CCn1c(SCC(=O)Nc2ncc([N+](=O)[O-])s2)nc2ccccc2c1=O [Compound 8m, 2-((3-allyl-4-oxo-3,4-dihydroquinazolin-2-yl)thio)-N-(5-nitrothiazol-2-yl)acetamide]
- IC50 (urease [4]): 5.46 ± 0.38 µM

SMILES: CC(C)Cn1c(SCC(=O)Nc2ncc([N+](=O)[O-])s2)nc2ccccc2c1=O [Compound 8l, 2-((3-isobutyl-4-oxo-3,4-dihydroquinazolin-2-yl)thio)-N-(5-nitrothiazol-2-yl)acetamide]
- IC50 (urease [4]): 8.43 ± 0.61 µM

SMILES: O=C(CSc1nc2ccccc2c(=O)n1Cc1ccccc1)Nc1ncc([N+](=O)[O-])s1 [Compound 8e, 2-((3-benzyl-4-oxo-3,4-dihydroquinazolin-2-yl)thio)-N-(5-nitrothiazol-2-yl)acetamide]
- IC50 (urease [4]): 3.83 ± 0.17 µM

SMILES: O=C(CSc1nc2ccccc2c(=O)n1CCc1ccccc1)Nc1ncc([N+](=O)[O-])s1 [Compound 8h, N-(5-nitrothiazol-2-yl)-2-((4-oxo-3-phenethyl-3,4-dihydroquinazolin-2-yl)thio)acetamide]
- IC50 (C. neoformans (H99)): 129 ± 5.3 µg/mL (≈ 277 µM)
- IC50 [1]: 172 ± 8.7 µg/mL (≈ 369 µM)
- MIC [2]: > 512 µg/mL
- MIC [3]: > 512 µg/mL
- IC50 (urease [4]): 2.22 ± 0.44 µM
- improvement in potency compared to thiourea (urease [4]): ten-fold
- Ki (urease [6]): 1.99 µM
- inhibition pattern against urease (urease [6]; Lineweaver–Burk plot): uncompetitive

SMILES: O=C(Cn1c(Cc2ccc(Cl)cc2)nc2ccccc2c1=O)N/N=C/c1ccco1 [A]
- IC50 (urease) (urease [5]; 2,3-disubstituted quinazolin-4(3H)-ones, Fig. 1A): 1.55 ± 0.11 µg/mL (≈ 3.68 µM)

SMILES: CCCn1c(SCC(=O)Nc2ncc([N+](=O)[O-])s2)nc2ccccc2c1=O [Compound 8i, N-(5-nitrothiazol-2-yl)-2-((4-oxo-3-propyl-3,4-dihydroquinazolin-2-yl)thio)acetamide]
- IC50 (urease [4]): 4.26 ± 0.46 µM

SMILES: CCc1nc2ccccc2c(=O)n1CC(=O)NNC(=O)c1cc2cc(Br)ccc2oc1=O [B]
- IC50 (urease) (urease [5]; quinazolinone-coumarin derivatives, Fig. 1B): 1.26 ± 0.07 µg/mL (≈ 2.53 µM)

SMILES: O=C(CSc1nc2ccccc2c(=O)n1-c1ccccc1)Nc1ncc([N+](=O)[O-])s1 [Compound 8a, N-(5-nitrothiazol-2-yl)-2-((4-oxo-3-phenyl-3,4-dihydroquinazolin-2-yl)thio)acetamide]
- IC50 (urease [4]): 4.72 ± 0.26 µM
- improvement in potency compared to thiourea (urease [4]): around fivefold

SMILES: COc1ccc(-n2c(SCC(=O)Nc3ncc([N+](=O)[O-])s3)nc3ccccc3c2=O)cc1 [Compound 8d, 2-((3-(4-methoxyphenyl)-4-oxo-3,4-dihydroquinazolin-2-yl)thio)-N-(5-nitrothiazol-2-yl)acetamide]
- IC50 (urease [4]): 2.78 ± 0.32 µM

SMILES: O=C(CSc1nc2ccccc2c(=O)n1C1CCCC1)Nc1ncc([N+](=O)[O-])s1 [Compound 8n, 2-((3-cyclopentyl-4-oxo-3,4-dihydroquinazolin-2-yl)thio)-N-(5-nitrothiazol-2-yl)acetamide]
- IC50 (urease [4]): 2.96 ± 0.45 µM

SMILES: CC(C)n1c(SCC(=O)Nc2ncc([N+](=O)[O-])s2)nc2ccccc2c1=O [Compound 8j, 2-((3-isopropyl-4-oxo-3,4-dihydroquinazolin-2-yl)thio)-N-(5-nitrothiazol-2-yl)acetamide]
- IC50 (urease [4]): 6.04 ± 0.57 µM

SMILES: CC(=O)Oc1ccccc1C(=O)Nc1ncc([N+](=O)[O-])s1 [Nitazoxanide]
- MIC50 against H. pylori (H. pylori): 4 µg/mL (≈ 13 µM)
- MIC90 against H. pylori (H. pylori): 8 µg/mL (≈ 26 µM)
